The text below walks through data of patent US7341859B2, “ADH from Rhodococcus erythropolis” (Degussa AG, priority 2002, dated 2008).

Like-named read-outs stand apart in the source and are kept apart here.

Data set [1] has as its system alcohol dehydrogenase from R. erythropolis. The data set is described as follows: Preparative reduction of keto-compounds with ADH and formate dehydrogenase regeneration, chiral GC. Conditions: for Conversion after 10 min [%]: 10 mM keto-compound, 0.5 U/ml alcohol dehydrogenase; for ee [%] of the product: enzymatic reduction, chiral GC. The class given is biochemical, Rhodococcus erythropolis. As to the method:
The product is analysed by means of gas chromatography, wherein the stationary phase in the GC column is capable of separating enantiomeric alcohols so that information on the ee values of the enzymatically prepared product can be obtained.
Such a mixture for reduction contains: • 10 mM keto-compound • 0.5 mM NAD • 100 mM Na formate • 1 U/ml formate dehydrogenase
At the times 0, 5 min and 10 min, samples are taken (100 μl), extracted with 100 μl of chloroform and the chloroform phase is analysed using gas chromatography.
Column: CP-Chirasil-DEX CB length: 25 m, diameter: 25 μm (Chrompack). Temperature programme: 5 min at 60° C., then 5° C./min up to 190° C. (for hexanone/hexanol: 30 min at 60° C., then 10° C./min to 195° C.). Column flow 1.3 ml/min; gas:helium
p-Cl-acetophenone, acetophenone, ethyl 2-oxobutyrate, 2-hexanone and 2-heptanone.

Data set [2] concerns ADH from R. erythropolis. The data set is described as follows: Enantioselective oxidation of (R,S)-phenylethanol with ADH and NADH oxidase, chiral GC. The settings on record: after 2 h; for oxidation of the enantiomer: 10 mM (R,S)-phenylethanol. The class given is biochemical, Rhodococcus erythropolis. As to the method:
By means of enantioselective oxidation of an alcohol, an enantiomer-enriched or enantiomer-pure alcohol, for example, can be obtained from a racemate.
Samples were taken after 0, 1 and 2 h and separated by gas chromatography (column: CP-Chirasil-DEX CB length: 25 m, diameter: 25 μm (Chrompack). Temperature programme: 5 min at 60° C., then 5° C./min up to 190° C.; column flow rate 1.3 ml/min; gas: helium. In this case, both the acetophenone peak (product; retention time=16.9 min), and also the enantiomers of phenylethanol (reactants; retention times R-phenylethanol=20.8 min and S-phenylethanol=21.1 min) were recorded.

The subject of data set [3] is aldehyde reductase from Corynebacterium sp. Conditions: cited from earlier work; for relative activity: phenylacetaldehyde = 100%.
Data set [4] concerns alcohol dehydrogenase from R. erythropolis (RE-ADH, new ADH expr. in E. coli). The data set is described as follows: Relative/specific activity of substrates with the new ADH from R. erythropolis (photometric NADH test). The data set is classed as biochemical, Rhodococcus erythropolis. Conditions: for Relative activity [%]: relative to acetophenone = 100. Here is the method:
In this case, as is normal, the measured activity for one compound is set at 100% and the activity/activities of the other compound(s) is determined in relation thereto. From the relative activities when compared with other substrates, it can then be recognised whether such another substrate is accepted to a greater or lesser extent.
A first purification can be achieved by anion exchange chromatography (MonoQ-Material, Pharmacia) (mobile buffer: 50 mM TEA buffer, pH 7.0; elution with a NaCl gradient of 0-1 M).
For the activity test, the cells were harvested (15 min centrifuging at 14000 rpm, 4° C.) and degraded after resuspension with 100 mM KPi buffer, pH 6.0 (1.5 ml of buffer per 1 g of cells). For the purposes of degradation, the suspension was treated with ultrasound (2×30 sec. power 100%, pulse 50), then the cell broth was centrifuged. The supernatant liquid is the soluble crude extract, the sediment is the insoluble fraction.
For a comparison using relative activities, the activity of the two enzymes was given with respect to phenylacetaldehyde=100%.
In this case, the relative activity is given with respect to the activity measured for acetophenone.

Data set [5] relates to ADH in accordance with J. Peters, Dissertation. The settings on record: cited from earlier work.
For data set [6], the system named is ADH in accordance with DE 4209022. Conditions: cited from earlier work.
In data set [7] the test system is whole cells of R. erythropolis. Description: Continuous conversion with alginate-immobilised whole cells in a column. The settings on record: 1.5 mM, 2 ml per h. The data set is classed as cell-based, Rhodococcus erythropolis. Here is the method:
Our results with whole cells of R. erythropolis indicate that this strain contains several ADHs, including at least one with opposite enantioselectivity. […] However, this high ee value is retained for only about 10 h (about 3 volume changes), then the ee value drops drastically while the conversion remains at the same high level.

The subject of data set [8] is C[C@H](O)c1ccc(Cl)cc1. The data set is described as follows: purified protein, by the assay type. Conditions: other: oxidation reaction.
Data set [9] concerns CC(=O)c1ccc(Cl)cc1. The data set is described as follows: purified protein, by the assay type. Conditions: other: reduction reaction.
Substrate in data set [10]: NC(=O)c1ccc[n+]([C@@H]2O[C@H](COP(=O)([O-])OP(=O)(O)OC[C@H]3O[C@@H](n4cnc5c(N)ncnc54)[C@H](O)[C@@H]3O)[C@@H](O)[C@H]2O)c1
Description: purified protein, by the assay type. Conditions: other: oxidation reaction.

Setting [11] is: relative to 2-heptanone = 100%, listed as 2-decanone.
The mark [12] stands for this setting: relative to 2-heptanone = 100%, listed as drawing 11.
[13] abbreviates: relative to methyl acetoacetate = 100%.
[14] abbreviates: relative to 2-heptanone = 100%, listed as 2-heptanone.
Setting [15] is: relative to 2-heptanone = 100%, listed as drawing 10.
Setting [16] is: relative to 2-heptanone = 100%, listed as drawing 12.
Setting [17] is: relative to 2-heptanone = 100%, listed as phenoxyacetone.
Where [18] appears, read: relative to methyl acetoacetate = 100%, listed as drawing 9.
The mark [19] stands for this setting: relative to methyl acetoacetate = 100%, listed as p-chloroacetophenone.
[20] abbreviates: relative to p-methylacetophenone = 100%, listed as drawing 3.
Where [21] appears, read: relative to p-methylacetophenone = 100%, listed as p-chloroacetophenone.
The mark [22] stands for this setting: relative to p-fluoroacetophenone = 100%, listed as drawing 5.
[23] abbreviates: relative to p-fluoroacetophenone = 100%, listed as p-methoxyacetophenone.
Where [24] appears, read: relative to p-methylacetophenone = 100%.

On to `CCCCC(C)=O` [2-hexanone], for which, in data set [1], the “Conversion after 10 min [%]” value is above 95% and the “ee [%] of the product” value was above 99%.
Regarding `C[C@@H](O)c1ccccc1` [(R)-phenylethanol], in [2], the “ee value of the remaining enantiomer” value is above 99% and the “oxidation of the enantiomer” value is “remained untouched”.
With `C[C@H](O)c1ccccc1` [(S)-phenylethanol], in data set [2], the “oxidation of the enantiomer” value is “fully oxidised”.
Consider `CC(=O)c1ccccc1` [Acetophenone], for which the “activity for acetophenone reduction” value was 22.4 U/mg in data set [3] (homogeneous enzyme) and 348 U/mg in data set [4] (homogeneous enzyme). Besides, the relative activity is recorded as 35% in data set [3] and 87% in data set [4] (phenylacetaldehyde = 100%). In addition, in [1], the “Conversion after 10 min [%]” value is reported as above 95%. In [1], the “ee [%] of the product” value is recorded as above 99%. Further, the “activity of Rhodococcus ADH compared with the Corynebacterium enzyme” value in data set [4] (highly purified enzymes, towards acetophenone) is on record as “about 15 times”. The “Relative activity [%]” value in data set [4] worked out at 100%.
Turning to `CCCCCCCCC(C)=O` [Decan-2-one, 2-decanone], the relative activity in data set [5] (setting [11]) was 79%; in data set [5] (setting [12]), 79%; in data set [4] (setting [11]) it was 76%; in data set [4] (setting [12]), 76%. Also, the “Relative activity [%]” value in [4] is given as 2521%.
Turning to `CCOC(=O)C(=O)CC` [Ethyl 2-oxobutyrate, ethyl 2-oxobutyrate], in [1], the “Conversion after 10 min [%]” value is above 95% and the “ee [%] of the product” value is given as above 99%.
In the case of `CCOC(=O)CC(C)=O` [Ethyl acetoacetate], the relative activity is on record as 250% in data set [5] (setting [13]); 250% in data set [5] (relative to methyl acetoacetate = 100%, listed as β-ketoethyl esters); 773% in data set [4] (setting [13]); 773% in [4] (relative to methyl acetoacetate = 100%, listed as β-ketoethyl ester). The “Relative activity [%]” value in data set [4] turned out to be 1020%.
In the case of `CCCCCC(C)=O` [Heptan-2-one, 2-heptanone], the relative activity in [5] (setting [14]), in [5] (setting [15]), in data set [4] (setting [14]) and in [4] (setting [15]) was 100% each time. In addition, the “Conversion after 10 min [%]” value in data set [1] is listed as above 95%. Further, in [1], the “ee [%] of the product” value is above 99%. In addition, the “Relative activity [%]” value in [4] was determined as 3328%.
In the case of `COC(=O)CC(C)=O` [Methyl acetoacetate, methyl acetoacetate], the relative activity in data set [5] (setting [13]) is listed as 100%; in [4] (setting [13]) it was 100%; in data set [4] (relative to methyl acetoacetate = 100%, listed as methyl ester), 100%. Also, the “Relative activity [%]” value in data set [4] worked out at 134%.
In the case of `CC(=O)COc1ccccc1` [Phenoxyacetone, phenoxyacetone], the relative activity in [5] (setting [16]) is 71%; in data set [5] (setting [17]), 71%; in data set [4] (setting [16]), 126%; in [4] (setting [17]) it was 126%. In addition, the “Relative activity [%]” value in data set [4] is 4180%.
Take `O=CCc1ccccc1` [Phenylacetaldehyde]: the relative activity in data set [3] and in data set [4] (phenylacetaldehyde = 100%) was 100% throughout.
Turning to `CCCCC=O` [Valeraldehyde], the results for the relative activity in [3] and in data set [4] (phenylacetaldehyde = 100%) were 181% and 433%, respectively.
On to `CC(=O)c1cccc(Cl)c1` [m-Cl-acetophenone], for which the “Relative activity [%]” value in [4] amounted to 2384%.
Regarding `CC(=O)c1ccc(Cl)cc1` [p-Cl-acetophenone, p-chloroacetophenone], the relative activity in data set [5] (setting [18]) was 100%; in data set [5] (setting [19]), 100%; in data set [6] (setting [20]) it was 81%; in data set [6] (setting [21]), 81%; in data set [3], 338%; in data set [4] (phenylacetaldehyde = 100%) it was 288%. Further, the relative activity in [4] (setting [18]) turned out to be 909%; in data set [4] (setting [19]) it was 909%; in [4] (setting [20]) it was 189%; in data set [4] (setting [21]) it was 189%. Also, the “Conversion after 10 min [%]” value in data set [1] is above 95%. Moreover, the “enantiomeric form of the product of conversion by the new alcohol dehydrogenase” value in data set [1] (also when used several times or at higher concentrations) was “enantiomerically pure”. Besides, the “ee [%] of the product” value in [1] was above 99%. Moreover, in [4], the “Relative activity [%]” value worked out at 1198%. The “ee of (S)-p-chloro-2-phenylethanol obtained” value in [7] (after 25 h (about 9 volume changes)) was found to be 70 % ee. Also, in data set [7] (after 50 h (about 18 volume changes)), the “ee of the alcohol obtained” value is “about 5 % ee”.
For the molecule `CC(=O)c1ccc(F)cc1` [p-F-acetophenone, p-fluoroacetophenone], the relative activity is reported as 100% in data set [6] (relative to p-fluoroacetophenone = 100%, listed as drawing 6); 100% in [6] (relative to p-fluoroacetophenone = 100%, listed as p-fluoroacetophenone); 100% in data set [4] (relative to p-fluoroacetophenone = 100%). The “Relative activity [%]” value in data set [4] came to 194%.
Take `COc1ccc(C(C)=O)cc1` [p-methoxy-acetophenone, p-methoxyacetophenone]: the relative activity in [6] (setting [22]) is 90%; in [6] (setting [23]), 90%; in data set [4] (setting [22]), 195%; in [4] (setting [23]), 195%. The “Relative activity [%]” value in data set [4] came to 232%.
For `CC(=O)c1ccc(C)cc1` [p-methyl-acetophenone, p-methylacetophenone], the relative activity in data set [6] (setting [24]) and in [4] (setting [24]) was 100% in each case. Further, the “Relative activity [%]” value in data set [4] is recorded as 640%.
In the case of RE-ADH (Rhodococcus erythropolis), the Km (as a rule, the substrate concentration at which the rate is half of its maximum) is recorded as 0.28 mM in data set [8] and 0.5 mM in data set [9].

B1: RE-ADH (Rhodococcus erythropolis) (protein)
chain: MKAIQYTRIGAEPELTEIPKPEPGPGEVLLEVTAAGVCHSDDFIMSLPEEQYTYGLPLTLGHEGAGKVAAVGEGVEGLDIGTNVVVYGPWGCGNCWHCSQGLENYCSRAQELGINPPGLGAPGALAEFMIVDSPRHLVPIGDLDPVKTVPLTDAGLTPYHAIKRSLPKLRGGSYAVVIGTGGLGHVAIQLLRHLSAATVIALDVSADKLELATKVGAHEVVLSDKDAAENVRKITGSQGAALVLDFVGYQPTIDTAMAVAGVGSDVTIVGIGDGQAHAKVGFFQSPYEASVTVPYWGARNELIELIDLAHAGIFDIAVETFSLDNGAEAYRRLAAGTLSGRAVVVPGL
As to B1, in [10], the Michaelis-Menten constant (Km) came to 0.082 mM.
